Laboratory results published in ChEMBL document CHEMBL1201862, “PubChem BioAssay data set” (2004).
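These data come from cells grown in 96-well plates and exposed to compound for 48 hours at five concentrations. At the GI50, growth is halved.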 Active and inactive are the calls of the source. Rule as the data show it: active = GI50 up to about 1.1 µM and inactive = higher.

How the values were obtained:
Assay in all cases: NCI anticancer screen, dose series, 48 h
A498 = system: A498
LOX IMVI = system: LOX IMVI
CCRF-CEM = system: CCRF-CEM
SK-MEL-5 = system: SK-MEL-5
RXF 393 = system: RXF 393
K562 = system: K562
UACC-62 = system: UACC-62
PC-3 = system: PC-3
ACHN = system: ACHN
OVCAR-8 = system: OVCAR-8
MDA-MB-435 = system: MDA-MB-435
BT-549 = system: BT-549
CAKI-1 = system: CAKI-1
MCF7 = system: MCF7
HCT-15 = system: HCT-15
HCT-116 = system: HCT-116
SF-539 = system: SF-539
MDA-MB-231 = system: MDA-MB-231
NCI/ADR-RES = system: NCI/ADR-RES
UACC-257 = system: UACC-257

Measured: GI50

COc1cc(C2c3cc4c(cc3OC(N3CCOCC3)C2C)OCO4)cc(OC)c1OC (centres undefined)
active: A498 0.743 µM | CCRF-CEM 0.457 µM | SK-MEL-5 0.378 µM | RXF 393 0.282 µM | K562 0.397 µM | UACC-62 0.537 µM | MDA-MB-435 0.179 µM | CAKI-1 0.522 µM | MCF7 0.51 µM | HCT-116 0.65 µM | SF-539 0.462 µM | NCI/ADR-RES 0.335 µM | UACC-257 0.748 µM
inactive: LOX IMVI 1.57 µM | PC-3 1.19 µM | ACHN 3.85 µM | OVCAR-8 1.62 µM | BT-549 4.29 µM | MDA-MB-231 2.84 µM
0.418 µM: HCT-15

CC1=C(/C=C/Cl)CC(Cl)C(C)(Cl)C1 (centres undefined)
inactive: A498 > 100 µM | LOX IMVI > 100 µM | CCRF-CEM 19.6 µM | SK-MEL-5 > 100 µM | RXF 393 10.6 µM | K562 > 100 µM | UACC-62 > 100 µM | PC-3 > 100 µM | ACHN > 100 µM | OVCAR-8 > 100 µM | MDA-MB-435 > 100 µM | BT-549 > 100 µM | CAKI-1 > 100 µM | MCF7 40 µM | HCT-116 > 100 µM | SF-539 > 100 µM | MDA-MB-231 > 100 µM | NCI/ADR-RES > 100 µM | UACC-257 > 100 µM
> 100 µM: HCT-15

CC1CCOc2ccc(cc2)/C=N\c2ccc(cc2)CCc2ccc(cc2)/N=C\c2ccc(cc2)OCC1
> 100 µM: HCT-15
inactive: A498 > 100 µM | LOX IMVI > 100 µM | CCRF-CEM 29.8 µM | SK-MEL-5 > 100 µM | RXF 393 35.6 µM | K562 > 100 µM | UACC-62 > 100 µM | PC-3 > 100 µM | ACHN > 100 µM | OVCAR-8 > 100 µM | MDA-MB-435 > 100 µM | BT-549 > 100 µM | CAKI-1 > 100 µM | MCF7 > 100 µM | HCT-116 > 100 µM | SF-539 > 100 µM | MDA-MB-231 > 100 µM | NCI/ADR-RES > 100 µM | UACC-257 > 100 µM

CC(=O)c1cccc(Nc2c3ccccc3nc3occc23)c1
3.99 µM: HCT-15
inactive: A498 31.4 µM | LOX IMVI 5.04 µM | CCRF-CEM 3.3 µM | SK-MEL-5 8.75 µM | K562 3.26 µM | UACC-62 9.04 µM | PC-3 13 µM | ACHN 9.73 µM | OVCAR-8 15.3 µM | BT-549 12.3 µM | CAKI-1 2.48 µM | MCF7 3.94 µM | HCT-116 3.5 µM | SF-539 2.16 µM | MDA-MB-231 9.93 µM | NCI/ADR-RES 2.51 µM | UACC-257 11.3 µM
active: RXF 393 0.09 µM | MDA-MB-435 1.07 µM

Cc1cc(C)n(CN(CCCCO)Cn2nc(C)cc2C)n1
inactive: A498 > 100 µM | LOX IMVI 22.8 µM | SK-MEL-5 34.1 µM | RXF 393 18.8 µM | K562 19.9 µM | UACC-62 19.1 µM | PC-3 20.2 µM | ACHN 17.5 µM | OVCAR-8 19.2 µM | MDA-MB-435 19.4 µM | BT-549 23 µM | CAKI-1 34.4 µM | MCF7 26.8 µM | HCT-116 20 µM | SF-539 18.6 µM | MDA-MB-231 29.9 µM | NCI/ADR-RES 18.2 µM | UACC-257 25.5 µM
17.5 µM: HCT-15
active: CCRF-CEM 0.178 µM

C/C(=N/NC(=S)N(C)CCc1ccccn1)c1cnccn1
active: LOX IMVI < 0.01 µM | CCRF-CEM < 0.0358 µM | SK-MEL-5 0.0256 µM | RXF 393 0.465 µM | K562 < 0.01 µM | UACC-62 0.0986 µM | PC-3 < 0.01 µM | ACHN < 0.01 µM | OVCAR-8 < 0.01 µM | MDA-MB-435 0.867 µM | BT-549 0.398 µM | CAKI-1 < 0.01 µM | MCF7 < 0.01 µM | HCT-116 < 0.01 µM | SF-539 0.118 µM | MDA-MB-231 < 0.01 µM | NCI/ADR-RES < 0.01 µM | UACC-257 < 0.015 µM
< 0.01 µM: HCT-15
inactive: A498 17.7 µM

COc1ccccc1Cn1nc(OC)c2cc([N+](=O)[O-])ccc21
inactive: A498 26.9 µM | LOX IMVI > 100 µM | CCRF-CEM > 100 µM | SK-MEL-5 > 53.7 µM | RXF 393 1.88 µM | K562 > 100 µM | PC-3 > 100 µM | ACHN 31 µM | OVCAR-8 31.1 µM | MDA-MB-435 > 71 µM | BT-549 16.9 µM | CAKI-1 15 µM | MCF7 45.8 µM | HCT-116 32.7 µM | SF-539 13.8 µM | MDA-MB-231 > 41.1 µM | NCI/ADR-RES 59.3 µM | UACC-257 > 74 µM
> 70.1 µM: HCT-15

CC(Oc1ccccc1Cl)C(=O)NN1C(=O)CC(=O)N(c2ccc(Cl)cc2)C1=S (centres undefined)
inactive: A498 20.4 µM | LOX IMVI 30.8 µM | SK-MEL-5 36 µM | RXF 393 30 µM | K562 13.1 µM | UACC-62 30.3 µM | PC-3 38.1 µM | ACHN 37.4 µM | OVCAR-8 38.8 µM | MDA-MB-435 61 µM | BT-549 55.1 µM | CAKI-1 40.7 µM | MCF7 29.6 µM | HCT-116 32.1 µM | SF-539 75.5 µM | MDA-MB-231 40.4 µM | NCI/ADR-RES 36.1 µM | UACC-257 45.1 µM
active: CCRF-CEM < 0.01 µM
36.6 µM: HCT-15

O=c1ccc2c(Cl)cccc2o1
inactive: A498 > 100 µM | LOX IMVI > 100 µM | CCRF-CEM > 100 µM | SK-MEL-5 > 100 µM | RXF 393 > 100 µM | K562 > 100 µM | UACC-62 > 100 µM | PC-3 > 100 µM | ACHN > 100 µM | OVCAR-8 > 100 µM | MDA-MB-435 > 100 µM | BT-549 > 100 µM | CAKI-1 > 100 µM | MCF7 > 100 µM | HCT-116 > 100 µM | SF-539 > 100 µM | MDA-MB-231 > 100 µM | NCI/ADR-RES > 100 µM | UACC-257 > 100 µM

Cc1nnc2n1N=C(c1cc(F)c(Cl)cc1Cl)/C(=C/c1ccc3c(c1)OCO3)S2
inactive: A498 45.5 µM | LOX IMVI 33.1 µM | CCRF-CEM 43 µM | SK-MEL-5 > 100 µM | RXF 393 51.3 µM | K562 > 100 µM | UACC-62 62.8 µM | PC-3 63.1 µM | ACHN 63.5 µM | OVCAR-8 65.3 µM | MDA-MB-435 45.9 µM | BT-549 > 100 µM | CAKI-1 69.7 µM | MCF7 35.5 µM | HCT-116 47.8 µM | SF-539 > 100 µM | MDA-MB-231 > 100 µM | NCI/ADR-RES 69.2 µM | UACC-257 71.1 µM
52.5 µM: HCT-15

COC1(O)C(=O)c2ccccc2OC1(OC)c1ccccc1 (centres undefined)
31.8 µM: HCT-15
inactive: A498 > 100 µM | LOX IMVI 65.9 µM | CCRF-CEM 46.8 µM | SK-MEL-5 > 100 µM | RXF 393 > 100 µM | K562 42 µM | UACC-62 > 100 µM | PC-3 > 100 µM | ACHN > 100 µM | OVCAR-8 > 100 µM | MDA-MB-435 > 100 µM | BT-549 > 100 µM | CAKI-1 > 100 µM | MCF7 48.9 µM | HCT-116 > 100 µM | SF-539 > 100 µM | MDA-MB-231 > 100 µM | NCI/ADR-RES 77.8 µM | UACC-257 > 100 µM

Oc1ccc([I+]c2ccccc2)cc1O
inactive: A498 > 100 µM | LOX IMVI 30.3 µM | CCRF-CEM 9.46 µM | SK-MEL-5 36 µM | RXF 393 52.2 µM | K562 21.6 µM | PC-3 22.3 µM | ACHN 36.8 µM | OVCAR-8 53.3 µM | MDA-MB-435 23 µM | BT-549 8.36 µM | CAKI-1 > 100 µM | MCF7 > 10 µM | HCT-116 34.4 µM | SF-539 29.2 µM | MDA-MB-231 46.7 µM | NCI/ADR-RES 28.9 µM | UACC-257 > 100 µM
27.7 µM: HCT-15

O=C1CCC2SC1CCC2=O
inactive: A498 > 100 µM | LOX IMVI > 100 µM | CCRF-CEM > 100 µM | SK-MEL-5 > 100 µM | RXF 393 > 100 µM | K562 > 100 µM | PC-3 > 100 µM | ACHN > 100 µM | OVCAR-8 > 100 µM | MDA-MB-435 > 100 µM | BT-549 > 100 µM | CAKI-1 > 100 µM | MCF7 > 100 µM | HCT-116 > 100 µM | SF-539 > 100 µM | MDA-MB-231 > 100 µM | NCI/ADR-RES > 100 µM | UACC-257 > 100 µM
> 100 µM: HCT-15

O=C(NNC(=O)c1ccccc1O)c1cccs1
inactive: A498 > 100 µM | LOX IMVI 66.4 µM | CCRF-CEM > 100 µM | SK-MEL-5 > 100 µM | RXF 393 > 100 µM | K562 > 100 µM | UACC-62 49.8 µM | PC-3 47.5 µM | OVCAR-8 32.1 µM | MDA-MB-435 > 100 µM | BT-549 > 100 µM | CAKI-1 79.4 µM | MCF7 52.2 µM | HCT-116 42.1 µM | SF-539 > 100 µM | MDA-MB-231 78.2 µM | NCI/ADR-RES 27.8 µM | UACC-257 > 100 µM
47.8 µM: HCT-15

Clc1cc(OCc2nn3c(Cc4ccccc4)nnc3s2)ccc1OCc1nn2c(Cc3ccccc3)nnc2s1
47.8 µM: HCT-15
inactive: A498 29.1 µM | LOX IMVI 93.8 µM | SK-MEL-5 25.4 µM | RXF 393 27.7 µM | K562 95.9 µM | UACC-62 40.6 µM | PC-3 48.4 µM | ACHN 24.2 µM | OVCAR-8 20.7 µM | MDA-MB-435 51.6 µM | BT-549 25.8 µM | CAKI-1 21.1 µM | MCF7 50.4 µM | HCT-116 53.5 µM | SF-539 16.2 µM | MDA-MB-231 18.5 µM | NCI/ADR-RES 59.3 µM | UACC-257 > 100 µM
